From ChEMBL document CHEMBL1159250, “A novel phorbol ester from Excoecaria agallocha” (J Nat Prod, 1995)

Assays:
Protein kinase C (PKC) = assay: Displacement of [3H]PDBu from rat brain membrane PKC; assay type: tissue-based
H9 = assay: Cytotoxicity in human H9 cells upto 2 uM; assay type: cell-based
[1] = system: Human immunodeficiency virus 1; assay: Inhibition of HIV1 replication in human H9 cells assessed as inhibition of supernatant reverse transcriptase and p24 level; assay type: functional, organism-based; details: Human immunodeficiency virus 1, H9

Which IC50 (Protein kinase C (PKC)) does the source give for `CCCC/C=C/C=C/CC(=O)O[C@@]12C[C@H](C)[C@@]3(O)[C@@H](C=C(CO)C[C@]4(O)C(=O)C(C)=C[C@@H]34)[C@@H]1C2(C)C` here?
The IC50 was 17 nM.

And the Activity (H9)?
The Activity was “Non-toxic”.

And the IC50 [1]?
Its IC50 is 6 nM.
